Experimental findings from ChEMBL document CHEMBL1795272, “Rhamnetin production based on the rational design of the poplar O-methyltransferase enzyme and its biological activities” (Bioorg Med Chem Lett, 2011) are described below.

The subject of series [1] is MDA-MB-231. Kind of series: Increase in c-Fos protein expression in human MDA-MB-231 cells at 20 uM within 30 mins by Western blot analysis. The format is functional, cell-based.
The subject of series [2] is MDA-MB-231. Nature of the series: Increase in Egr-1 protein expression in human MDA-MB-231 cells at 20 uM within 30 mins by Western blot analysis. It counts as functional, cell-based.
The test system of series [3] is MDA-MB-231. Kind of series: Effect on p38 kinase protein level in human MDA-MB-231 cells at 20 uM up to 120 mins by Western blot analysis. It counts as functional, cell-based. On the technique in general: In western blotting, separated proteins are transferred to a membrane and probed.
For series [4], the system named is MDA-MB-231. Kind of series: Effect on JNK2 protein level in human MDA-MB-231 cells at 20 uM up to 120 mins by Western blot analysis. The format is functional, cell-based.
Series [5] deals with MDA-MB-231. Kind of series: Effect on JNK1 protein level in human MDA-MB-231 cells at 20 uM up to 120 mins by Western blot analysis. The format is functional, cell-based.
The test system of series [6] is MDA-MB-231. Kind of series: Effect on ERK2 protein level in human MDA-MB-231 cells at 20 uM up to 120 mins by Western blot analysis. The format is functional, cell-based.
The subject of series [7] is MDA-MB-231. Nature of the series: Effect on ERK1 protein level in human MDA-MB-231 cells at 20 uM up to 120 mins by Western blot analysis. It counts as functional, cell-based.
The target in series [8] is MAP kinase p38 (Homo sapiens) (UniProt O15264+Q15759+Q16539+P53778). Kind of series: Increase in p38 kinase phosphorylation in human MDA-MB-231 cells at 20 uM by Western blot analysis. It counts as cell-based. The following applies: TDE = time-dependent effect.
In series [9] the target is Mitogen-activated protein kinase 9 (Homo sapiens) (UniProt P45984). Kind of series: Increase in JNK2 phosphorylation in human MDA-MB-231 cells at 20 uM by Western blot analysis. The format is cell-based. The following applies: TDE = time-dependent effect.
In series [10] the target is Mitogen-activated protein kinase 1 (Homo sapiens) (UniProt P28482). Nature of the series: Increase in ERK2 phosphorylation in human MDA-MB-231 cells at 20 uM by Western blot analysis. The following applies: TDE = time-dependent effect. The format is cell-based.
The target of series [11] is Mitogen-activated protein kinase 8 (Homo sapiens) (UniProt P45983). Kind of series: Increase in JNK1 phosphorylation in human MDA-MB-231 cells at 20 uM by Western blot analysis. It counts as cell-based. The following applies: TDE = time-dependent effect.
Series [12] addresses Mitogen-activated protein kinase 3 (Homo sapiens) (UniProt P27361). Kind of series: Increase in ERK1 phosphorylation in human MDA-MB-231 cells at 20 uM by Western blot analysis. It counts as cell-based. The following applies: TDE = time-dependent effect.
The subject of series [13] is MDA-MB-231. Nature of the series: Induction of apoptosis in human MDA-MB-231 cells assessed as cleaved caspase-7 accumulation at 20 uM after 12 hrs by Western blot analysis. It counts as functional, cell-based.
Series [14] can be described thus: Stability of the compound in DMEM media assessed as compound degradation at 25 ppm after 3 hrs by HPLC. The format is physicochemical. The following applies: read-out: Activity.

Activity calls are given as the source filed them. No cut-off for these calls is given here.

Sequence of Mitogen-activated protein kinase 1 (Homo sapiens) (P28482 whole entry): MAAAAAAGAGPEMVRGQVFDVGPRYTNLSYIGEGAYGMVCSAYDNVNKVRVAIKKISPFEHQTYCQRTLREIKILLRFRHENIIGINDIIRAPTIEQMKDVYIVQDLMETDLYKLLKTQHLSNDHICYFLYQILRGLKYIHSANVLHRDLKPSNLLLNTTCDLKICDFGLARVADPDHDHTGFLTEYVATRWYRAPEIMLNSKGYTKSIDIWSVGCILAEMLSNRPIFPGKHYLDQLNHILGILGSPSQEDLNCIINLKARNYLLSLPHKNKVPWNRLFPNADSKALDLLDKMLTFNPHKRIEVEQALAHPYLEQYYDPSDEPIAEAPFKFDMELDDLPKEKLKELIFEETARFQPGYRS
Sequence of Mitogen-activated protein kinase 8 (Homo sapiens) (P45983 whole entry): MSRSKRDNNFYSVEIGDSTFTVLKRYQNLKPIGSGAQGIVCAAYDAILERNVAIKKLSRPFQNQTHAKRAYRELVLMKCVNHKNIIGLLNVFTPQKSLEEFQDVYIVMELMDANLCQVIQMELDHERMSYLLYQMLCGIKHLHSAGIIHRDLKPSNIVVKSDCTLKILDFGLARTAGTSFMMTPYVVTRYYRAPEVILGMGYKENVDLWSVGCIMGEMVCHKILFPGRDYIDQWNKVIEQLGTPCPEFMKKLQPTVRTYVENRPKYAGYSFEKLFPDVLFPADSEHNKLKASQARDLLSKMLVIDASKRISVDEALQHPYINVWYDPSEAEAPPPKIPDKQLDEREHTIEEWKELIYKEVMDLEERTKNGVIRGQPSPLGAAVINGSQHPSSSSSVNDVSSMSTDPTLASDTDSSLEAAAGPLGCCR
Sequence of Mitogen-activated protein kinase 9 (Homo sapiens) (P45984 whole entry, looked up): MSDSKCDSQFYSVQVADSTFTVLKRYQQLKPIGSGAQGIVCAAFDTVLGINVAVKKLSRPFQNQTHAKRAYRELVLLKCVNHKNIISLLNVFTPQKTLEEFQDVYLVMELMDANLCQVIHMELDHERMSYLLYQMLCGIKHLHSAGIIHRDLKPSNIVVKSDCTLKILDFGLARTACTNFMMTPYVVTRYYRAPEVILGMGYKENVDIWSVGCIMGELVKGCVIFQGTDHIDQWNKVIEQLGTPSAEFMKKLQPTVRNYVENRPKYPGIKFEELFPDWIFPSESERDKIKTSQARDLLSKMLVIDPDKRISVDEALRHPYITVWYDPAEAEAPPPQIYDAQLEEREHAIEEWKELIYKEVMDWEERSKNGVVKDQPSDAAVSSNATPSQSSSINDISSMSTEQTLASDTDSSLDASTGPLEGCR
Sequence of Mitogen-activated protein kinase 3 (Homo sapiens) (P27361 whole entry): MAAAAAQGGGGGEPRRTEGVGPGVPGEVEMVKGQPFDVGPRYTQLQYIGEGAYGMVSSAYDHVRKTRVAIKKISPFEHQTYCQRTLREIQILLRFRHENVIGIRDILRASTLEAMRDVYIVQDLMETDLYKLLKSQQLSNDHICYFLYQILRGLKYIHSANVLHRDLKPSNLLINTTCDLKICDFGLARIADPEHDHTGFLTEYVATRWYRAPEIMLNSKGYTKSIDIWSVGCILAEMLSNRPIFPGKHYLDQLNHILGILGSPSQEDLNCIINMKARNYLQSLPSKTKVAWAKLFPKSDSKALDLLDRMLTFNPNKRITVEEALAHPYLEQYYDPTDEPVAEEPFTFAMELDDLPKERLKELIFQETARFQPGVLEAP

Regarding `O=c1c(O)c(-c2ccc(O)c(O)c2)oc2cc(O)cc(O)c12` [QUERCETIN], the outcome in series [1], in series [2] and in series [13] was Active. Further, the result in [3], in series [4], in series [5], in [6] and in [7] was inactive. For the same compound, the Activity entry in series [8], in series [9], in series [10], in [11] and in series [12] was “tde” each time. Further, the degraded at 3 h, 25 ppm in series [14] stood at 60%.
Take `COc1cc(O)c2c(=O)c(O)c(-c3ccc(O)c(O)c3)oc2c1` [RHAMNETIN]: the outcome in series [1], in series [2] and in series [13] was Active. For the same compound, the outcome in [3], in series [4], in series [5], in [6] and in [7] was inactive. Besides, the Activity entry in series [8], in [9], in [10], in series [11] and in series [12] was “tde” throughout. The degraded at 3 h, 25 ppm in series [14] came to 4%.
